We go through twelve compounds from US20230293521A1, “METHODS FOR SCREENING NOVEL CORONAVIRUS ANTIVIRALS AND METHODS OF USING ANTIVIRALS FOR THE TREATMENT OF CORONAVIRUS INFECTIONS” (priority 2020, published 2023).

In general, IC50 refers to the concentration that inhibits the measured activity by half.

Data set [1] concerns SARS-CoV-2. The data set can be described thus: microbe, parasite or virus in culture. It is filed as cell-based.
Data set [2] relates to SARS-CoV-2 replication centers. The data set can be described thus: Confocal immunofluorescence of SARS-CoV-2 N and dsRNA replication centers in Calu-3 cells. The class given is cell-based. The conditions noted are these: for distribution of SARS-CoV-2 N and dsRNA (replication center formation): Calu-3, pre-treated, MOI 3, fixed at 24 h.p.i.; for IC90: read-out: approximate IC90 (concentration used for pre-treatment).

For data set [3], the system named is SARS-CoV-2. The data set can be described thus: Time of addition studies, impedance assay in VeroE6 cells. The class given is cell-based. The conditions noted are these: for inhibition of SARS-CoV-2 replication, single treatment 1 hour prior to infection, compound removed prior to infection: VPS34 inhibitors at 5 µM; for inhibition of SARS-CoV-2 replication, compound added up to 4 hpi: dosing at 2 hpi or 4 hpi, compound maintained.

Data set [4] relates to SARS-CoV-2 genomic RNA, subgenomic N RNA and NSP14 RNA. The class given is cell-based. The conditions noted are these: for viral RNA levels: Calu-3, both MOI 0.01 and 1; for reduction in RNA synthesis compared with reduction in viral titers: Calu-3, 24 hpi.
The next data set has as its system VPS34. The class given is cell-based. The following applies: Huh7, 24 hours treatment; VPS34-IN1 2 µM, PIK-III, SAR405, Compound 19 5 µM, Orlistat 200 µM.
For the next data set, the system named is Vero E6 cells. The conditions noted are these: for cytotoxicity (rapid decrease in resistance between 1 and 20 hpi): at 50 µM and 16.67 µM.
Data set [5] deals with SARS-CoV-2. The data set can be described thus: microbe, parasite or virus in culture. It is filed as cell-based. The conditions noted are these: for IC50: Calu-3, pre-treated 1 hour, MOI 0.01, supernatants at 48 hpi.
Setting [6] is: Severe acute respiratory syndrome coronavirus 2, Calu-3.

Structures are written as SMILES. Like-named read-outs stand apart in the source and are kept apart here.

`CCCCCCCCCCC[C@@H](C[C@@H]1OC(=O)[C@H]1CCCCCC)OC(=O)[C@H](CC(C)C)NC=O` [Orlistat] displayed a half-inhibitory concentration (IC50) in the data set with SARS-CoV-2 [1] (setting [6]) of 21.2 µM. In data set [2], the “distribution of SARS-CoV-2 N and dsRNA (replication center formation)” value (“distribution of SARS-CoV-2 N and dsRNA” below) was “loss of these distinct puncta and dispersion of dsRNA and SARS-CoV-2 N”. The IC90 in data set [2] (setting [6]) is roughly 500 µM. In addition, in the data set on SARS-CoV-2 [3], the “inhibition of SARS-CoV-2 replication, single treatment 1 hour prior to infection, compound removed prior to infection” value (“inhibition … to infection” below) is listed as “minimal efficacy” and the “inhibition of SARS-CoV-2 replication, compound added up to 4 hpi” value (“inhibition … to 4 hpi” below) is on record as “remained inhibitory”. Moreover, the “viral RNA levels” value in data set [4] is “reduced RNA levels”. Besides, the “effect on GFP-2xFYVE localization to endosomes” value in the data set with VPS34 is reported as “did not affect GFP-2xFYVE localization”. Moreover, the “early cytotoxic effects (1-20 hours post-treatment)” value in the data set on Vero E6 cells is on record as “neither Orlistat nor Triacsin C induced early cytotoxic effects”.
As for `CCCCCCCCCCCCCCOc1ccc(C(=O)O)o1` [TOFA, 5-(Tetradecyloxy)-2-furoic acid], in data set [2], the “distribution of SARS-CoV-2 N and dsRNA” value is “loss of these distinct puncta and dispersion of dsRNA and SARS-CoV-2 N”. Further, the IC50 in the data set with SARS-CoV-2 [5] (Severe acute respiratory syndrome coronavirus 2) was 1.34 µM. Moreover, the “reduction in RNA synthesis compared with reduction in viral titers” value in data set [4] is given as “significantly less substantial than the reduction in viral titers”.
In the data set with SARS-CoV-2 [1] (setting [6]), `CC(C)(O)CNc1ncc(-c2ccnc(Nc3ccncc3)n2)c(CC2CC2)n1` [VPS34-IN1] had an IC50 of 0.55 µM. Besides, the “distribution of SARS-CoV-2 N and dsRNA” value in data set [2] was “loss of these distinct puncta and dispersion of dsRNA and SARS-CoV-2 N”. Besides, the IC90 in data set [2] (setting [6]) is roughly 5 µM. Moreover, in the data set with SARS-CoV-2 [3], the “inhibition … to infection” value is given as “inhibited SARS-CoV-2 replication” and the “inhibition … to 4 hpi” value was “inhibition could be observed”. For the same compound, in data set [4], the “viral RNA levels” value was “reduced RNA levels”. The “toxicity at the remaining concentrations” value with Vero E6 cells is “no toxicity was observed”. Also, the “cytotoxicity (rapid decrease in resistance between 1 and 20 hpi)” value in the data set with Vero E6 cells (Vero E6) is recorded as “induced rapid cytotoxicity”.
Consider `Cc1nc(NC(=O)N2CCC[C@H]2C(N)=O)sc1-c1ccnc(C(C)(C)C(F)(F)F)c1` [BYL719], for which, in the data set with SARS-CoV-2 [1], the “decrease in viral titers” value came out at 1 log and the “inhibition of SARS-CoV-2 replication” value is recorded as “little inhibition was detected”.
`Nc1ncc(-c2ccnc(Nc3ccncc3)n2)c(CC2CC2)n1` [PIK-III] came in with an IC50 in the data set on SARS-CoV-2 [1] (setting [6]) of 0.12 µM. Moreover, the IC90 in data set [2] (setting [6]) was roughly 5 µM. In addition, in the data set on SARS-CoV-2 [3], the “inhibition … to infection” value is listed as “inhibited SARS-CoV-2 replication” and the “inhibition … to 4 hpi” value is reported as “inhibition could be observed”. Moreover, the “toxicity at the remaining concentrations” value in the data set with Vero E6 cells is given as “no toxicity was observed”. For the same compound, in the data set with Vero E6 cells (Vero E6), the “cytotoxicity (rapid decrease in resistance between 1 and 20 hpi)” value is “induced rapid cytotoxicity”.
In turn, `C[C@@H]1COCCN1c1cc(=O)n2c(n1)N(Cc1cncc(Cl)c1)[C@H](C(F)(F)F)CC2` [SAR405] returned an IC50 with SARS-CoV-2 [1] (setting [6]) of 0.376 µM.
For the compound `CCOC(=O)[C@@]1(CCCCCCOc2ccc(Cl)cc2)CO1` [Etomoxir], in the data set with SARS-CoV-2 [5] (Calu-3, MOI 0.01, 48 hpi), the “inhibition of SARS-CoV-2” value is “Neither compound showed any inhibition”.
On to `CCC/C=C/C/C=C/C=C/C=N/NN=O` [Triacsin C], for which the 50% inhibitory concentration (IC50) with SARS-CoV-2 [1] came out at 0.04 µM. Besides, the “distribution of SARS-CoV-2 N and dsRNA” value in data set [2] was “fewer but larger foci positive for both markers”. In data set [2] (Calu-3), the IC90 is roughly 50 µM. In the data set on SARS-CoV-2 [3], the “inhibition … to infection” value was “minimal efficacy” and the “inhibition … to 4 hpi” value is given as “remained inhibitory”. Further, the “viral RNA levels” value in data set [4] was “reduced RNA levels”. Moreover, the “early cytotoxic effects (1-20 hours post-treatment)” value in the data set with Vero E6 cells (even at the highest concentrations of 50 µM and 500 µM, respectively, Vero E6) is on record as “neither Orlistat nor Triacsin C induced early cytotoxic effects”.
Regarding `COc1ccc(CN2CCNCC2)c(OC)c1OC` [Trimetazidine], the “inhibition of SARS-CoV-2” value with SARS-CoV-2 [5] (Calu-3, MOI 0.01, 48 hpi) is listed as “Neither compound showed any inhibition”.
On to `O=C(Nc1ccccc1)Nc1ccc(-c2ccc(C(=O)[C@@H]3CCC[C@H]3C(=O)O)cc2)cc1` [A922500], for which the “distribution of SARS-CoV-2 N and dsRNA” value in data set [2] was “loss of these distinct puncta and dispersion of dsRNA and SARS-CoV-2 N”. Moreover, the half-inhibitory concentration (IC50) in the data set on SARS-CoV-2 [5] was 4.02 µM. The “reduction in RNA synthesis compared with reduction in viral titers” value in data set [4] was “significantly less substantial than the reduction in viral titers”.
As for `CCCCCCCCCCCCCCC(Br)C(=O)O` (stereo not drawn) [2-bromopalmitate], the “distribution of SARS-CoV-2 N and dsRNA” value in data set [2] is “fewer but larger foci positive for both markers”. The “concentrations at which infectious virus production was inhibited” value with SARS-CoV-2 [5] (Calu-3, MOI 0.01, 48 hpi) was “greater than 10 µM”. The IC50 in the data set on SARS-CoV-2 [5] was 23 µM. Besides, the “viral RNA levels” value in data set [4] is recorded as “reduced RNA levels”.
For the compound `C=C1C(=O)O[C@H](CCCCCCCC)[C@H]1C(=O)O` [C75, tetrahydro-4-methylene-2R-octyl-5-oxo-3S-furancarboxylic acid], the IC50 with SARS-CoV-2 [5] was determined as 22.8 µM.
